Source: patent US7875647B2, “Heteroaryl-pyrazole derivatives as cannabinoid CB1 receptor antagonists” (Green Cross Corporation, priority 2006, dated 2011)

These molecules were tested against T1, Cannabinoid-1 receptor (CB1R) (Rattus norvegicus, UniProt P20272) (assay: Cannabinoid-1 receptor (CB1R) binding affinity assay ([3H]CP-55940, rat CB-1 receptor binding protocol)). Details: IC50(nM), brain tissue of SD rats, [3H]CP-55940, 30° C. 60 min.
T1 construct: The tissue obtained from the brain of SD rats was homogenized; from tissue; host or cells: brain of SD rats (membrane pellet of the homogenate)
T1 sequence (P20272 whole entry): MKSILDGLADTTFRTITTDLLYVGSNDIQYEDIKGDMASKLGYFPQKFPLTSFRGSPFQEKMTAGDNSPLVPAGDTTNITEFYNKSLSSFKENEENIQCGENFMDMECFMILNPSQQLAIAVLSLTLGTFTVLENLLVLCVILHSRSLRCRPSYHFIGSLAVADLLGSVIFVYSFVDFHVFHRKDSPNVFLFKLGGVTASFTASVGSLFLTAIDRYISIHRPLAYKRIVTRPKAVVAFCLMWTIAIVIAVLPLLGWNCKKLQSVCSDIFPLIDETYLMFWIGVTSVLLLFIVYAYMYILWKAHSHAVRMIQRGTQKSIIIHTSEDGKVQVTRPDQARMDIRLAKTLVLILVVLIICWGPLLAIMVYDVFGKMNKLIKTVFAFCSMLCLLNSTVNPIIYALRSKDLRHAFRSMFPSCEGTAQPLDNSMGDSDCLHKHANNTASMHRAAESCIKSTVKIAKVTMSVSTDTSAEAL

Row | SMILES | IC50 [nM]
1 | CCCCC(C)c1nnc(-c2nn(-c3ccccc3Cl)c(-c3ccc(Cl)cc3)c2C)s1 (stereo not drawn) [Example 411, 2-(1-(2-chlorophenyl)-5-(4-chlorophenyl)-4-methyl-1H-pyrazol-3-yl)-5-(hexan-2-yl)-1,3,4-thiadiazole] | 13.5
2 | CCOC(C)(C)c1nnc(-c2nn(-c3ccc(Cl)cc3Cl)c(-c3ccc(Cl)cc3)c2C)o1 [Example 116, 2-(5-(4-chlorophenyl)-1-(2,4-dichlorophenyl)-4-methyl-1H-pyrazol-3-yl)-5-(2-ethoxypropan-2-yl)-1,3,4-oxadiazole] | 23.9
3 | CC(F)c1c(-c2nnc(C(C)(C)C)s2)nn(-c2ccc(Cl)cc2Cl)c1-c1ccc(Br)cc1 (stereo not drawn) [Example 530, 2-(5-(4-bromophenyl)-1-(2,4-dichlorophenyl)-4-(1-fluoroethyl)-1H-pyrazol-3-yl)-5-tert-butyl-1,3,4-thiadiazole] | 11.8
4 | CCCCOC(C)(C)c1nnc(-c2nn(-c3ccc(Cl)cc3Cl)c(-c3ccc(Cl)cc3)c2C)o1 [Example 243, 2-(2-butoxypropan-2-yl)-5-(5-(4-chlorophenyl)-1-(2,4-dichlorophenyl)-4-methyl-1H-pyrazol-3-yl)-1,3,4-oxadiazole] | 9.78

Same assay, conditions: brain tissue of SD rats, [3H]CP-55940, 30° C. 60 min; read-out: IC50

Row | SMILES | IC50 [nM]
5 | C=C(C)c1c(-c2nnc(C(C)(C)C)o2)nn(-c2ccc(Cl)cc2Cl)c1-c1ccc(Cl)cc1 [Example 219, 2-tert-butyl-5-(5-(4-chlorophenyl)-1-(2,4-dichlorophenyl)-4-(prop-1-en-2-yl)-1H-pyrazol-3-yl)-1,3,4-oxadiazole] | 4.83
6 | CCCCCn1nnnc1-c1nn(-c2ccc(Cl)cc2Cl)c(-c2ccc(Cl)cc2)c1C [Example 573, 5-(5-(4-Chlorophenyl)-1-(2,4-dichlorophenyl)-4-methyl-1H-pyrazol-3-yl)-1-pentyl-1H-tetrazole] | 184
7 | CC(C)(C)c1nnc(-c2nn(-c3ccc(Cl)cc3Cl)c(-c3ccc(Cl)cc3)c2Cn2ccnn2)o1 [Example 304, 2-(4-((1H-1,2,3-triazol-1-yl)methyl)-5-(4-chlorophenyl)-1-(2,4-dichlorophenyl)-1H-pyrazol-3-yl)-5-tert-butyl-1,3,4-oxadiazole] | 12.8
8 | Cc1c(-c2nnc(C(C)C3CCCC3)o2)nn(-c2ccc(Cl)cc2Cl)c1-c1ccc(Cl)cc1 (stereo not drawn) [Example 61, 2-(5-(4-chlorophenyl)-1-(2,4-dichlorophenyl)-4-methyl-1H-pyrazol-3-yl)-5-(1-cyclopentylethyl)-1,3,4-oxadiazole] | 22.2
9 | Cc1c(-c2nnn(C3CCCCC3)n2)nn(-c2ccc(Cl)cc2Cl)c1-c1ccc(Cl)cc1 [Example 580, 5-(5-(4-Chlorophenyl)-1-(2,4-dichlorophenyl)-4-methyl-1H-pyrazol-3-yl)-2-cyclohexyl-2H-tetrazole] | 75.8
10 | CCc1c(-c2nnc(C3(c4ccc(Cl)cc4Cl)CC3)o2)nn(-c2ccc(Cl)cc2Cl)c1-c1ccc(Cl)cc1 [Example 153, 2-(5-(4-chlorophenyl)-1-(2,4-dichlorophenyl)-4-ethyl-1H-pyrazol-3-yl)-5-(1-(2,4-dichlorophenyl)cyclopropyl)-1,3,4-oxadiazole] | 5.83

The remaining lines, values ahead:

Row | IC50 [nM] | SMILES
11 | 143 | CCc1c(-c2nnc(C3(C#N)CC3)s2)nn(-c2ccc(Cl)cc2Cl)c1-c1ccc(Cl)cc1 [Example 491, 1-(5-(5-(4-chlorophenyl)-1-(2,4-dichlorophenyl)-4-ethyl-1H-pyrazol-3-yl)-1,3,4-thiadiazol-2-yl)cyclopropanecarbonitrile]
12 | 18.5 | CCc1c(-c2nnc(C3CCC3)s2)nn(-c2ccc(Cl)cc2Cl)c1-c1ccc(Br)cc1 [Example 375, 2-(5-(4-Bromophenyl)-1-(2,4-dichlorophenyl)-4-ethyl-1H-pyrazol-3-yl)-5-cyclobutyl-1,3,4-thiadiazole]
13 | 27.1 | CCc1c(-c2nnc(C(C)C)s2)nn(-c2ccc(Cl)cc2Cl)c1-c1ccc(Br)cc1 [Example 453, 2-(5-(4-bromophenyl)-1-(2,4-dichlorophenyl)-4-ethyl-1H-pyrazol-3-yl)-5-isopropyl-1,3,4-thiadiazole]
14 | 10.8 | Cc1c(-c2nnc(C3(c4ccc(Cl)cc4Cl)CC3)s2)nn(-c2ccc(Cl)cc2Cl)c1-c1ccc(Cl)cc1 [Example 459, 2-(5-(4-chlorophenyl)-1-(2,4-dichlorophenyl)-4-methyl-1H-pyrazol-3-yl)-5-(1-(2,4-dichlorophenyl)cyclopropyl)-1,3,4-thiadiazole]
15 | 333 | Cc1c(-c2nnc(-c3cc4ccccc4o3)o2)nn(-c2ccc(Cl)cc2Cl)c1-c1ccc(Cl)cc1 [Example 18, 2-(Benzofuran-2-yl)-5-(5-(4-chlorophenyl)-1-(2,4-dichlorophenyl)-4-methyl-1H-pyrazol-3-yl)-1,3,4-oxadiazole]
16 | 4.06 | COC(=O)NC(C)c1c(-c2nnc(C3(c4ccc(Cl)cc4)CC3)o2)nn(-c2ccc(Cl)cc2Cl)c1-c1ccc(Cl)cc1 (stereo not drawn) [Example 231, Methyl 1-(5-(4-chlorophenyl)-3-(5-(1-(4-chlorophenyl)cyclopropyl)-1,3,4-oxadiazol-2-yl)-1-(2,4-dichlorophenyl)-1H-pyrazol-4-yl)ethylcarbamate]
17 | 11.3 | Clc1ccc(-c2c(Cn3cncn3)c(-c3nnc(C4(c5ccc(Cl)cc5Cl)CC4)s3)nn2-c2ccc(Cl)cc2Cl)cc1 [Example 510, 2-(4-((1H-1,2,4-triazol-1-yl)methyl)-5-(4-chlorophenyl)-1-(2,4-dichlorophenyl)-1H-pyrazol-3-yl)-5-(1-(2,4-dichlorophenyl)cyclopropyl)-1,3,4-thiadiazole]
18 | 292 | CCC(C)c1nnc(-c2nn(-c3ccc(Cl)cc3)c(-c3ccc(Cl)cc3)c2C)s1 (stereo not drawn) [Example 444, 2-(1,5-bis(4-chlorophenyl)-4-methyl-1H-pyrazol-3-yl)-5-sec-butyl-1,3,4-thiadiazole]
19 | 112 | Cc1c(-c2nnc(-c3ccco3)o2)nn(-c2ccc(Cl)cc2Cl)c1-c1ccc(Cl)cc1 [Example 8, 2-(5-(4-chlorophenyl)-1-(2,4-dichlorophenyl)-4-methyl-1H-pyrazol-3-yl)-5-(furan-2-yl)-1,3,4-oxadiazole]
20 | 4.1 | CCc1c(-c2nnc(C3(c4ccc(Cl)cc4)CC3)s2)nn(-c2ccc(Cl)cc2Cl)c1-c1ccc(Br)cc1 [Example 477, 2-(5-(4-bromophenyl)-1-(2,4-dichlorophenyl)-4-ethyl-1H-pyrazol-3-yl)-5-(1-(4-chlorophenyl)cyclopropyl)-1,3,4-thiadiazole]
21 | 105 | CC(C)(C)c1nnc(-c2nn(-c3ccc(Cl)cc3Cl)c(-c3ccc(Cl)cc3)c2Cl)o1 [Example 337, 2-tert-butyl-5-(4-chloro-5-(4-chlorophenyl)-1-(2,4-dichlorophenyl)-1H-pyrazol-3-yl)-1,3,4-oxadiazole]
22 | 24.8 | CCC(C)c1nnc(-c2nn(-c3ccc(Cl)cc3Cl)c(-c3ccc(Cl)cc3)c2C)s1 (stereo not drawn) [Example 367, 2-sec-Butyl-5-(5-(4-chlorophenyl)-1-(2,4-dichlorophenyl)-4-methyl-1H-pyrazol-3-yl)-1,3,4-thiadiazole]
23 | 13.2 | CCc1c(-c2nnc(CC3CCCCC3)s2)nn(-c2ccc(Cl)cc2Cl)c1-c1ccc(Br)cc1 [Example 386, 2-(5-(4-bromophenyl)-1-(2,4-dichlorophenyl)-4-ethyl-1H-pyrazol-3-yl)-5-(cyclohexylmethyl)-1,3,4-thiadiazole]
24 | 57.3 | CC(=O)Oc1c(-c2nnc(C(C)(C)C)o2)nn(-c2ccc(Cl)cc2Cl)c1-c1ccc(Cl)cc1 [Example 216, 3-(5-tert-butyl-1,3,4-oxadiazol-2-yl)-5-(4-chlorophenyl)-1-(2,4-dichlorophenyl)-1H-pyrazol-4-yl acetate]
